# In ChEMBL document CHEMBL1909046, “DrugMatrix in vitro pharmacology data”:
# What was measured:
# [1] = DRUGMATRIX: beta-Lactamase enzyme inhibition (substrate: Nitrocefin); design: species or system Bacillus cereus; settings: Not Active = under 50% inhibition at 10 µM
# [2] = target: T1, Neuropeptide Y receptor type 1 (Homo sapiens, UniProt P25929); format: cell membranes, Membrane; settings: sk-n-mc; note: in other assays of this panel Not Active means under 50% inhibition at 10 µM
# T1 sequence (P25929 whole entry): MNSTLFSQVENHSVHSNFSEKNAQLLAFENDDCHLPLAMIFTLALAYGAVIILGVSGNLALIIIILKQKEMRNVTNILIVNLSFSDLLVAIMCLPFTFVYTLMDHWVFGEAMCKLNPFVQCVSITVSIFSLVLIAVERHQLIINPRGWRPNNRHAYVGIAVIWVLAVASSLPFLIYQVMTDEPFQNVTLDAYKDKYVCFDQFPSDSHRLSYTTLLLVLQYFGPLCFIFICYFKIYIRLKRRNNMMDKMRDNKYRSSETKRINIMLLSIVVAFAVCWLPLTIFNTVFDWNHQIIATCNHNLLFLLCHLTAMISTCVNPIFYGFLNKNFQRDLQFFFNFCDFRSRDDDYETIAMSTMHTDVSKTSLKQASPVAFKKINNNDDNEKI
# [3] = target: Delta-type opioid receptor (Homo sapiens, UniProt P41143); format: cell membranes, Membrane; settings: hek293; note: in other assays of this panel Not Active means under 50% inhibition at 10 µM
# Sequence of Delta-type opioid receptor (P41143 whole entry): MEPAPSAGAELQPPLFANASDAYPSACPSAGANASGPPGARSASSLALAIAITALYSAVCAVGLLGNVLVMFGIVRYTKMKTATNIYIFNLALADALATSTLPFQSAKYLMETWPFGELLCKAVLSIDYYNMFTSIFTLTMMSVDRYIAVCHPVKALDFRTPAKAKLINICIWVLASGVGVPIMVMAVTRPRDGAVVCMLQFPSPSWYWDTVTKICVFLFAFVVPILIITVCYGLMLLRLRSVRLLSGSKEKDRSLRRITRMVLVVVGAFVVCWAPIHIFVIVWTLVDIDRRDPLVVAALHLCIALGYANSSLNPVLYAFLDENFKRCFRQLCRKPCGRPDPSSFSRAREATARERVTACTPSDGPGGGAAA
# [4] = DRUGMATRIX: Phosphodiesterase PDE3 enzyme inhibition (substrate: [3H]cAMP + cAMP); format: tissue-based, Homo sapiens; settings: platelet; Not Active = under 50% inhibition at 10 µM
# [5] = DRUGMATRIX: Phosphodiesterase PDE4 enzyme inhibition (substrate: [3H]cAMP + cAMP); settings: u-937, Not Active = under 50% inhibition at 10 µM
# [6] = DRUGMATRIX: Potassium Channel [KATP] radioligand binding (ligand: [3H] Glyburide); format: cell membranes, Membrane; settings: hit-t15; Not Active = under 50% inhibition at 10 µM
# Neutrophil elastase = target: T2, Neutrophil elastase (Homo sapiens, UniProt P08246); format: tissue-based;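 note: inhibition of neutrophil elastase enzyme activity, measured with a p-nitroanilide-linked peptide substrate; in other assays of this panel Not Active means under 50% inhibition at 10 µM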
# T2 sequence (P08246 whole entry): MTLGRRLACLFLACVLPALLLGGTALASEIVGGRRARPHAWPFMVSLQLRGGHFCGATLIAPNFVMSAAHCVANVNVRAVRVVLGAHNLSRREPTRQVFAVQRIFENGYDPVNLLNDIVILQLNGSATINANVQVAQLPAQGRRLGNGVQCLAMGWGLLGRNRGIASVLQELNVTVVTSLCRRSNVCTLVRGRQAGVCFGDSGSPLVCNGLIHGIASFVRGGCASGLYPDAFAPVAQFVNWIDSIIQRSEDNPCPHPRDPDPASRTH
# Cytochrome P450 2E1 = Cytochrome P450 2E1 (Homo sapiens, UniProt P05181); settings: bti-tn-5b1-4; note: in other assays of this panel Not Active means under 50% inhibition at 10 µM
# Sequence of Cytochrome P450 2E1 (P05181 whole entry): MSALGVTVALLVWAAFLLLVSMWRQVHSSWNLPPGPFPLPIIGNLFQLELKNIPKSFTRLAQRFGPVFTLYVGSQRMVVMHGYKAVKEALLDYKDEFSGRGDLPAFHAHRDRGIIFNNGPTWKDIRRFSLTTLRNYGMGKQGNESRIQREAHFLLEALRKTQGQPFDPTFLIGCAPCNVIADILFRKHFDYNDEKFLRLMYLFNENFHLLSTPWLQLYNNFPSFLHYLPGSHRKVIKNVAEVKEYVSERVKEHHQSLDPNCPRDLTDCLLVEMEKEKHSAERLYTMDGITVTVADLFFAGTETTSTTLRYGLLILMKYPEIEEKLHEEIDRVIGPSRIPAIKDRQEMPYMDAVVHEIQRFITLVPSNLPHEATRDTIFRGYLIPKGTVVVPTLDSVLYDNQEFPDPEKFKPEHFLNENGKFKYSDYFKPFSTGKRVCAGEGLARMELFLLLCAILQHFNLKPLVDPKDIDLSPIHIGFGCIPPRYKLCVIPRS
# Estrogen receptor = target: T3, Estrogen receptor (Homo sapiens, UniProt P03372); settings: sf9; note: in other assays of this panel Not Active means under 50% inhibition at 10 µM
# T3 sequence (P03372 whole entry): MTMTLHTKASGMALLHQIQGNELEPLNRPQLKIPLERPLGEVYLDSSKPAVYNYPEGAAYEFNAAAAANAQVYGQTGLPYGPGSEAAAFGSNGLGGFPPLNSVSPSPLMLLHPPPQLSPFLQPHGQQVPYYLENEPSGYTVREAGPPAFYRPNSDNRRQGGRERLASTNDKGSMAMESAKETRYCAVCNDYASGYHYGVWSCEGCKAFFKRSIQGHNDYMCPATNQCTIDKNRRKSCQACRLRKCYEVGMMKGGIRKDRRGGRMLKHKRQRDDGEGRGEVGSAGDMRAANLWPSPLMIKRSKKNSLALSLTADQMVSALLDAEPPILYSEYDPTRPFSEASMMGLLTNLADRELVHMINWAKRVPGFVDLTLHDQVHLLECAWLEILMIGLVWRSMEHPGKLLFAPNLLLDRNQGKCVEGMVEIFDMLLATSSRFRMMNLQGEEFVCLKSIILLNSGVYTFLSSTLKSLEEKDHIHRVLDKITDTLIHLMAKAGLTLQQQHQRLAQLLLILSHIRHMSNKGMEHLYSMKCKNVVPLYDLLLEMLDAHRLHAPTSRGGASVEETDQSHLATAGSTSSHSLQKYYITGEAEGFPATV
Compound,IC50 [1],Ki [1],IC50 [2],IC50 [3],IC50 [4],Ki [4],IC50 [5],Ki [5],IC50 [6],Ki [6],IC50 (Neutrophil elastase),IC50 (Cytochrome P450 2E1),Ki (Cytochrome P450 2E1),IC50 (Estrogen receptor),Ki [2],Ki [3],Ki (Neutrophil elastase),Ki (Estrogen receptor),IC50 ([5]; read-out: IC50) [µM]
CC(c1cc2ccccc2s1)N(O)C(N)=O (configuration not stated) [ZILEUTON],Not Active,Not Active,Not Active,Not Active,Not Active,Not Active,Not Active,Not Active,Not Active,Not Active,Not Active,Not Active,Not Active,Not Active,,,,,
O=C1Nc2ccc(Cl)cc2C(c2ccccc2Cl)=NC1O (configuration not stated) [LORAZEPAM],Not Active,Not Active,Not Active,Not Active,Not Active,Not Active,Not Active,Not Active,Not Active,Not Active,Not Active,Not Active,Not Active,Not Active,,,,,
CC(C)Cc1ccc([C@@H](C)C(=O)O)cc1 [(R)-IBUPROPHEN],Not Active,Not Active,Not Active,Not Active,Not Active,Not Active,Not Active,Not Active,Not Active,Not Active,Not Active,Not Active,Not Active,Not Active,,,,,
O=C(Nc1ccc(Br)cc1)c1cc(Br)cc(Br)c1O [TRIBROMSALAN],Not Active,Not Active,Not Active,Not Active,Not Active,Not Active,Not Active,Not Active,Not Active,Not Active,Not Active,Not Active,Not Active,Not Active,,,,,
CO[C@@H]1[C@@H](OC)[C@H](C)[C@@](O)(CC(=O)O)O[C@H]1[C@H](C)[C@H]1O[C@@]2(CC[C@@](C)([C@H]3CC[C@@](C)([C@@H]4O[C@@H]([C@H]5O[C@](C)(O)[C@H](C)C[C@@H]5C)C[C@@H]4O[C@@H]4C[C@H](OC)[C@@H](OC)[C@H](C)O4)O3)O2)C[C@H](O)[C@H]1C [MADURAMICIN ACID],Not Active,Not Active,Not Active,Not Active,Not Active,Not Active,Not Active,Not Active,Not Active,Not Active,Not Active,Not Active,Not Active,Not Active,,,,,
SODIUM ORTHOVANAD,Not Active,Not Active,Not Active,Not Active,Not Active,Not Active,Not Active,Not Active,Not Active,Not Active,Not Active,Not Active,Not Active,Not Active,Not Active,Not Active,Not Active,Not Active,
Cc1cccc(C)c1OCC(C)N (configuration not stated) [MEXILETINE],Not Active,Not Active,Not Active,Not Active,Not Active,Not Active,Not Active,Not Active,Not Active,Not Active,Not Active,Not Active,Not Active,Not Active,,,,,
NC1CCN(c2nc3c(cc2F)c(=O)c(C(=O)O)cn3-c2ccc(F)cc2F)C1 (configuration not stated) [TOSUFLOXACIN],Not Active,Not Active,Not Active,Not Active,Not Active,Not Active,Not Active,Not Active,Not Active,Not Active,Not Active,Not Active,Not Active,Not Active,,,,,
COc1ccc(CCN(C)CCCC(C#N)(c2ccc(OC)c(OC)c2)C(C)C)cc1OC (configuration not stated),Not Active,Not Active,Not Active,Not Active,Not Active,Not Active,Not Active,Not Active,Not Active,Not Active,Not Active,Not Active,Not Active,Not Active,,,,,
O=C(Oc1ccccc1C(=O)O)c1ccccc1O [SALSALATE],Not Active,Not Active,Not Active,Not Active,Not Active,Not Active,Not Active,Not Active,Not Active,Not Active,Not Active,Not Active,Not Active,Not Active,,,,,
NC(=O)N1C(=O)/C(=C(\O)c2cccs2)c2cc(Cl)ccc21 [TENIDAP],Not Active,Not Active,Not Active,Not Active,Not Active,Not Active,Not Active,Not Active,Not Active,Not Active,Not Active,Not Active,Not Active,Not Active,,,,,
O=C1C(CC[S+]([O-])c2ccccc2)C(=O)N(c2ccccc2)N1c1ccccc1 (configuration not stated) [SULFINPYRAZONE],Not Active,Not Active,Not Active,Not Active,Not Active,Not Active,Not Active,Not Active,Not Active,Not Active,Not Active,Not Active,Not Active,Not Active,,,,,
N#Cc1ccc(C(c2ccc(C#N)cc2)n2cncn2)cc1 [LETROZOLE],Not Active,Not Active,Not Active,Not Active,Not Active,Not Active,Not Active,Not Active,Not Active,Not Active,Not Active,Not Active,Not Active,Not Active,,,,,
CO[C@H]1/C=C/O[C@@]2(C)Oc3c(C)c(O)c4c(O)c(c(/C=N/N5CCN(C6CCCC6)CC5)c(O)c4c3C2=O)NC(=O)/C(C)=C\C=C\[C@H](C)[C@H](O)[C@@H](C)[C@@H](O)[C@@H](C)[C@H](OC(C)=O)[C@@H]1C [RIFAPENTINE],Not Active,Not Active,Not Active,Not Active,Not Active,Not Active,Not Active,Not Active,Not Active,Not Active,Not Active,Not Active,Not Active,Not Active,,,,,
CCCCOc1cc(CC2CNC(=O)N2)ccc1OC (configuration not stated) [RO-201724],Not Active,Not Active,Not Active,Not Active,Not Active,Not Active,,,Not Active,Not Active,Not Active,Not Active,Not Active,Not Active,,,,,11.3
CCN(CC)CCNC(=O)c1cc(S(C)(=O)=O)ccc1OC [TIAPRIDE],Not Active,Not Active,Not Active,Not Active,Not Active,Not Active,Not Active,Not Active,Not Active,Not Active,Not Active,Not Active,Not Active,Not Active,,,,,
